Like-named read-outs stand apart in the source and are kept apart here.
Experiments:
[1] = target: EGFR D770-N771 ins NPG kinase (Homo sapiens (Human), UniProt P00533, INS770NPG); assay: In-vitro enzyme experiment 1 (HTRF kinase assay), D770-N771 ins NPG kinase; assay type: biochemical
[2] = system: KC-1362 BaF3-EGFR D770-N771 ins NPG cells; assay: Anti-proliferative activity on KC-1362 BaF3-EGFR D770-N771 ins NPG cells; assay type: cell-based; conditions: Ba/F3 EGFR
[3] = system: KC-1474:PC-9 EGFR-Del19/T790M/C797S; assay: Cell proliferation inhibition experiment (CCK-8), KC-1474; assay type: cell-based; conditions: Homo sapiens, 72 h
Excerpt: (§1) Inhibition rate %=[(A0−AS)/(A0−AC)]×100%.

[4] = system: KC-0178:NCI-1975 EGFR-L858R/T790M/C797S; assay: Cell proliferation inhibition experiment (CCK-8), KC-0178; assay type: cell-based; conditions: Homo sapiens, 72 h
Excerpt: as §1

HCC827 EGFR-Del19 = assay: Cell proliferation inhibition experiment (CCK-8), HCC827; assay type: cell-based; conditions: Homo sapiens, 72 h
Excerpt: as §1

PC-9 EGFR-Del19 = assay: Cell proliferation inhibition experiment (CCK-8), PC-9; assay type: cell-based; conditions: Homo sapiens, 72 h
Excerpt: as §1

H1975 EGFR-L858R/T790M = assay: Cell proliferation inhibition experiment (CCK-8), H1975; assay type: cell-based; conditions: Homo sapiens, NCI-H1975, 72 h
Excerpt: as §1

A549 EGFR-WT = assay: Cell proliferation inhibition experiment (CCK-8), A549; conditions: Homo sapiens, A549, 72 h, read-out: cell proliferation inhibition IC50 (μM) A549, 72 h, CCK-8
[5] = target: EGFR-Del19/T790M/C797S kinase (Homo sapiens, UniProt P00533, C797S/T790M, form not given); assay: In-vitro enzyme experiment 2 (HTRF kinase assay), EGFR Del19 T790M C797S; assay type: biochemical; conditions: read-out: enzyme inhibition IC50 (nM) EGFR-Del19/T790M/C797S
Experimental: The specific experiment was as follows: • 1. […] Test method of activity of compound • a) a compound diluent was transferred to each well of an assay plate (784075, Greiner) using Echo 550; • b) the assay plate was sealed and centrifuged at 1,000 g for 1 min; • c) 2×EGFR (D770-N771 ins NPG T790M) was prepared in a 1× kinase buffer; • d) 5 μl of the 2×EGFR (D770-N771 ins NPG T790M) was added to a 384-well assay plate (784075, Greiner); • e) the assay plate was centrifuged at 1,000 g for 30 s and incubated at room temperature for 10 min; • f) 2× TK-substrate-biotin (2 μM) and ATP were added to the 1× kinase buffer and mixed; • g) the reaction was started after adding 5 μl of the TK-substrate-biotin (2 μM) and ATP mixture; • h) the assay plate was centrifuged at 1,000 g for 30 s; and the assay plate was sealed and incubated at room temperature for 40 min; • i) 4× Sa-XL 665 was prepared in an HTRF detection buffer; • j) 5 μl of the Sa-XL 665 and 5 μl of a TK-antibody-cryptate were added to each well of the assay plate; • k) the assay plate was centrifuged at 1,000 g for 30 s and incubated at room temperature for 1 h; and • l) fluorescence signals at 615 nm (cryptate) and 665 nm (XL665) were read on an Envision 2104 reader. • 3. Data analysis • 3.1 Calculation of ratio (665/615 nm) of each well • 3.2 Calculation of inhibition rate
(§2) [formula] • 3.3 Calculation of IC50 value of compound and drawing dose-effect curve of compound • IC50 values were calculated using GraphPad 6.0 by applying a non-linear regression curve (dose-effect relationship-variable slope) of the logarithm of the compound concentration versus the inhibition rate.
The preparation of the kinase buffer, the test method of the activity of the compound, and the data analysis referred to the relevant definitions in example 117, wherein step c) of the test method of the activity of the compound was replaced by preparing 2×EGFR Del19 T790M C797S in the 1× kinase buffer.

[6] = target: EGFR (D770-N771 ins NPG T790M) kinase (Homo sapiens (Human), UniProt P00533, INS770NPG/T790M); assay: In-vitro enzyme experiment 1 (HTRF kinase assay), EGFR D770-N771 ins NPG T790M; assay type: biochemical
Experimental: The specific experiment was as follows: • 1. Preparation of 1× concentration kinase buffer • 1 volume of 5 times concentration of an enzyme buffer diluted with 4 volumes of distilled water; 5 mM magnesium chloride; 1 mM DTT; and 1 mM MnCl2. • 2. Test method of activity of compound • a) a compound diluent was transferred to each well of an assay plate (784075, Greiner) using Echo 550; • b) the assay plate was sealed and centrifuged at 1,000 g for 1 min; • c) 2×EGFR (D770-N771 ins NPG T790M) was prepared in a 1× kinase buffer; • d) 5 μl of the 2×EGFR (D770-N771 ins NPG T790M) was added to a 384-well assay plate (784075, Greiner); • e) the assay plate was centrifuged at 1,000 g for 30 s and incubated at room temperature for 10 min; • f) 2× TK-substrate-biotin (2 μM) and ATP were added to the 1× kinase buffer and mixed; • g) the reaction was started after adding 5 μl of the TK-substrate-biotin (2 μM) and ATP mixture; • h) the assay plate was centrifuged at 1,000 g for 30 s; and the assay plate was sealed and incubated at room temperature for 40 min; • i) 4× Sa-XL 665 was prepared in an HTRF detection buffer; • j) 5 μl of the Sa-XL 665 and 5 μl of a TK-antibody-cryptate were added to each well of the assay plate; • k) the assay plate was centrifuged at 1,000 g for 30 s and incubated at room temperature for 1 h; and • l) fluorescence signals at 615 nm (cryptate) and 665 nm (XL665) were read on an Envision 2104 reader. • 3. Data analysis • 3.1 Calculation of ratio (665/615 nm) of each well • 3.2 Calculation of inhibition rate
as §2
Y=lowest value+(highest value−lowest value)/(1+10^((Log IC50−X)×slope)) • X: logarithm of inhibitor concentration; and Y: inhibition rate. • 3.4 Double test report • 3.4.1 After one tester completed a report, another tester again checked the report to ensure that data analysis was correct. • 3.4.2 The data was exported from the software and manually analyzed. • 3.4.2.1 The rate was converted into the inhibition rate. All the IC50 values were first calculated with the inhibition rate using Prism GraphPad 6.0. • 3.4.2.2 Then the IC50 value was recalculated using the ratio to check the accuracy of the analysis. • 3.4.3 The number of all the compounds was ensured to be correct.

Chain of EGFR-Del19/T790M/C797S kinase (P00533 25-1210 T790M/C797S limits assumed, form open): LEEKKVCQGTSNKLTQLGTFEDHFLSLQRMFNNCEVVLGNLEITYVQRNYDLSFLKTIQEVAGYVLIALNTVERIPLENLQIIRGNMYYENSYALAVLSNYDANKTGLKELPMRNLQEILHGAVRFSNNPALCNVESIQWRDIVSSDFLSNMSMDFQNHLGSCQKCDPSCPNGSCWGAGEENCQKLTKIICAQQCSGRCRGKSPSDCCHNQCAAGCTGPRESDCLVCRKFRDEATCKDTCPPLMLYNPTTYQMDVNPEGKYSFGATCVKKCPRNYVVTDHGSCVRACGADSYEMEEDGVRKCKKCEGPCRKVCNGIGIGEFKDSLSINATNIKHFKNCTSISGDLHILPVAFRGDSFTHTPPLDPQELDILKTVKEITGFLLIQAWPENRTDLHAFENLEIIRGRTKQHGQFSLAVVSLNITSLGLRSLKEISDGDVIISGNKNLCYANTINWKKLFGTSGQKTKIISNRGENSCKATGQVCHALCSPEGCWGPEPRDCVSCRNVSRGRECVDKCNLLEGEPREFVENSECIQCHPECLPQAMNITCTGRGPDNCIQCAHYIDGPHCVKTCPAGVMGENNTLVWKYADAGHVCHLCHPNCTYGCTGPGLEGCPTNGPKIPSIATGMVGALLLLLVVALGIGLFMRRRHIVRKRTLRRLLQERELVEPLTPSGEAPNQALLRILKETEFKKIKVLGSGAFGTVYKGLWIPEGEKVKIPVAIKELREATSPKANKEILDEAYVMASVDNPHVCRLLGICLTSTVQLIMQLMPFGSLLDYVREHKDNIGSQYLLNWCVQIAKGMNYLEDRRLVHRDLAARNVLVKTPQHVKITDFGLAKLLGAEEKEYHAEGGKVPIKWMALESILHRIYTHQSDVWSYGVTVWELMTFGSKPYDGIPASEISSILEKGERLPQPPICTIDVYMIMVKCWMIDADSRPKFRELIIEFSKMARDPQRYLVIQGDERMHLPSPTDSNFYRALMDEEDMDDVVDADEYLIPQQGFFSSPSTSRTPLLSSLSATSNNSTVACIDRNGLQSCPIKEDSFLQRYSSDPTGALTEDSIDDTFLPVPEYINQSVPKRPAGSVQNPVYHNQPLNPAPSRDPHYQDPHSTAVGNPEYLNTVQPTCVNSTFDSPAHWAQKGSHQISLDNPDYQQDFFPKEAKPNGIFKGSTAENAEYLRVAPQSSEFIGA
Chain of EGFR D770-N771 ins NPG kinase (P00533 other isoform, or with tags, fused parts or gaps del 1-668/ins NPG behind 770 limits assumed): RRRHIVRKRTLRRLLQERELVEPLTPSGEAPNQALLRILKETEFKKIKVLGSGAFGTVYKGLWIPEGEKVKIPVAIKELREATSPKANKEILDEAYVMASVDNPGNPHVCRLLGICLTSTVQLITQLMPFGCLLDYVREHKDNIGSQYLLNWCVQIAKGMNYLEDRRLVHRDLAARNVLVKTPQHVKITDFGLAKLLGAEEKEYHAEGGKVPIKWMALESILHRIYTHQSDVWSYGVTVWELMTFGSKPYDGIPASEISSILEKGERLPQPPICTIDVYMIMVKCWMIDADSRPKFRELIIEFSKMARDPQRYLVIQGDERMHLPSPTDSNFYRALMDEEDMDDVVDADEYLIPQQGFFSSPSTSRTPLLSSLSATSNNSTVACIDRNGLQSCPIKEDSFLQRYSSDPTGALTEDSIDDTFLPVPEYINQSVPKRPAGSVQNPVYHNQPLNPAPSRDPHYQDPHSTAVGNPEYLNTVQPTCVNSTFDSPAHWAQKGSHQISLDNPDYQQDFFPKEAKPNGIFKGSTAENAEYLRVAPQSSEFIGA
Chain of EGFR (D770-N771 ins NPG T790M) kinase (P00533 other isoform, or with tags, fused parts or gaps T790M/del 1-668/ins NPG behind 770 limits assumed): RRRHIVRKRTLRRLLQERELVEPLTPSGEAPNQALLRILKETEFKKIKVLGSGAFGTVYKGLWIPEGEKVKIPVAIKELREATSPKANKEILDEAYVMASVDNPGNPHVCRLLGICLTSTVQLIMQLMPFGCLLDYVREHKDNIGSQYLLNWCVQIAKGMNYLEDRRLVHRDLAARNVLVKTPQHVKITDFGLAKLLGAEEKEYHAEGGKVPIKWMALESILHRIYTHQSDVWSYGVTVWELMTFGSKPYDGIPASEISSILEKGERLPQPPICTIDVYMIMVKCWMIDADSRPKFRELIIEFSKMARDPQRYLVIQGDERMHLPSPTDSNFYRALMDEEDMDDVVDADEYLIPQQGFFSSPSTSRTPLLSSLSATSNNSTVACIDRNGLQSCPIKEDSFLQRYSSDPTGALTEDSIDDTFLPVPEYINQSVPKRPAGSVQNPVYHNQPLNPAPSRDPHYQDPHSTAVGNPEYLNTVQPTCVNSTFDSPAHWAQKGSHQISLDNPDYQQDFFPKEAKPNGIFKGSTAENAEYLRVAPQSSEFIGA

SMILES | IC50 [1] | IC50 [2] | IC50 [3] | IC50 (HCC827 EGFR-Del19) | IC50 (PC-9 EGFR-Del19) | IC50 (H1975 EGFR-L858R/T790M) | IC50 (A549 EGFR-WT) | IC50 (A549 EGFR-WT; Table 5 numeric) | IC50 [5] | IC50 [6] | IC50 [4]
CN1CCN(c2ccc(Nc3nc(N[C@H]4CC[C@H](CO)CC4)c4c(C(=O)c5ccc(F)cc5)c[nH]c4n3)cc2)CC1 [Example 42] | 4.44 nM | 35 nM | < 0.1 µM | 0.1 to 1 µM | < 0.1 µM | 0.1 to 1 µM | 1 to 2 µM | – | – | – | 1 to 2 µM
O=C(c1cccc(F)c1)c1c[nH]c2nc(Nc3ccc(N4CCOCC4)cc3)nc(N[C@H]3CC[C@H](CO)CC3)c12 [Example 92] | – | – | – | < 0.1 µM | 0.1 to 1 µM | < 0.1 µM | – | 0.07 µM | – | – | –
CN1CCN(c2ccc(Nc3nc(NC4CCCCC4O)c4c(C(=O)c5ccc(F)cc5)c[nH]c4n3)cc2)CC1 (stereo not drawn) [Example 43] | – | – | – | 0.1 to 1 µM | 0.1 to 1 µM | 0.1 to 1 µM | – | – | 100 to 600 nM | – | –
CN1CCN(c2ccc(Nc3nc(NC4CCOCC4)c4c(C(=O)c5ccc(F)cc5)c[nH]c4n3)cc2)CC1 [Example 40] | – | – | < 0.1 µM | 0.1 to 1 µM | 0.1 to 1 µM | – | 0.1 to 1 µM | 0.23 µM | – | – | –
C=CC(=O)N1CC[C@H](Nc2nc(Nc3ccc(N4CCN(C)CC4)cc3)nc3[nH]cc(C(=O)c4ccccc4F)c23)C1 [Example 46] | – | – | – | 0.1 to 1 µM | < 0.1 µM | < 0.1 µM | – | – | – | – | –
O=C(c1ccc(F)cc1)c1c[nH]c2nc(Nc3ccc(N4CCOCC4)cc3)nc(N[C@H]3CC[C@H](CO)CC3)c12 [Example 79] | – | – | – | < 0.1 µM | 0.1 to 1 µM | 0.1 to 1 µM | 0.1 to 1 µM | – | – | – | < 0.1 µM

Now from value to compound, other results behind:

IC50 [1] | IC50 [2] | IC50 [3] | IC50 (HCC827 EGFR-Del19) | IC50 (PC-9 EGFR-Del19) | IC50 (H1975 EGFR-L858R/T790M) | IC50 (A549 EGFR-WT) | IC50 (A549 EGFR-WT; Table 5 numeric) | IC50 [5] | IC50 [6] | SMILES | IC50 [4]
– | – | 0.1 to 1 µM | < 0.1 µM | < 0.1 µM | – | 0.1 to 1 µM | – | 10 to 100 nM | – | Cn1cc(Nc2nc(N[C@H]3CC[C@H](CO)CC3)c3c(C(=O)c4ccc(F)cc4)c[nH]c3n2)cn1 [Example 110] | < 0.1 µM
3 nM | 120 nM | – | 0.1 to 1 µM | < 0.1 µM | 0.1 to 1 µM | 0.1 to 1 µM | – | – | 7.27 nM | C=CC(=O)N1CC[C@@H](Nc2nc(Nc3cnn(C)c3)nc3[nH]cc(C(=O)c4ccc(F)cc4)c23)C1 [Example 109] | –
2.46 nM | 560 nM | 0.1 to 1 µM | – | 0.1 to 1 µM | 0.1 to 1 µM | 1 to 2 µM | – | < 10 nM | 8.16 nM | CN1CCC(n2cc(Nc3nc(N[C@H]4CC[C@@H](CO)CC4)c4c(C(=O)c5ccc(F)cc5)c[nH]c4n3)cn2)CC1 [Example 115] | 1 to 2 µM

Source: patent US20250122202A1, “EGFR INHIBITOR, PREPARATION METHOD THEREFOR AND USE THEREOF” (SHANDONG NEW TIME PHARMACEUTICAL CO., LTD., priority 2021, published 2025)
